Data as given in ChEMBL document CHEMBL1201862, “PubChem BioAssay data set” (2004).
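Growth conditions: 96-well plates. Treatment: test compound, 48 hours, 5 concentrations. Analysis: linear interpolation between bracketing concentrations; unreached endpoints set to highest concentration. The concentration for 50% growth inhibition is given as GI50.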 The source made the active and inactive calls. Rule as the data show it: active = GI50 up to about 1.1 µM and inactive = higher.

Assays:
Assay in all cases: growth of human tumour cells (NCI), 48 h
[1] = system: 786-0
[2] = system: A498
[3] = system: A549
[4] = system: ACHN
[5] = system: BT-549
[6] = system: CAKI-1
[7] = system: COLO 205
[8] = system: DU-145
[9] = system: EKVX
[10] = system: HCC 2998
[11] = system: HCT-116
[12] = system: HCT-15
[13] = system: HOP-62
[14] = system: HOP-92
[15] = system: Hs-578T
[16] = system: IGROV-1
[17] = system: K562
[18] = system: KM12
[19] = system: LOX IMVI
[20] = system: M14
[21] = system: MCF7
[22] = system: MDA-MB-231
[23] = system: MDA-MB-435
[24] = system: MDA-N
[25] = system: Malme-3M
[26] = system: NCI-H226
[27] = system: NCI-H23
[28] = system: NCI-H460
[29] = system: NCI/ADR-RES
[30] = system: OVCAR-3
[31] = system: OVCAR-4
[32] = system: OVCAR-5
[33] = system: OVCAR-8
[34] = system: PC-3
[35] = system: RPMI-8226
[36] = system: RXF 393
[37] = system: SF-268
[38] = system: SF-295
[39] = system: SF-539
[40] = system: SK-MEL-28
[41] = system: SK-MEL-2
[42] = system: SK-MEL-5
[43] = system: SK-OV-3
[44] = system: SN12C
[45] = system: SNB-19
[46] = system: SNB-75
[47] = system: SR
[48] = system: SW-620
[49] = system: T47D
[50] = system: TK-10
[51] = system: U-251
[52] = system: UACC-257
[53] = system: UACC-62
[54] = system: UO-31
[55] = system: CCRF-CEM
[56] = system: HL-60
[57] = system: HT-29
[58] = system: MOLT-4
[59] = system: NCI-H522

For `COC(=O)[C@]12CSC[C@H]1C[C@H](c1ccc(N(C)C)cc1)N2`, the GI50 [1] was > 100 µM (inactive), the GI50 [2] was > 28.1 µM (inactive) and the GI50 [3] was > 100 µM (inactive). For the same compound, the GI50 [4] was > 100 µM (inactive), the GI50 [5] was > 100 µM (inactive) and the GI50 [6] was > 100 µM (inactive). The GI50 [7] was > 100 µM (inactive), the GI50 [8] was > 100 µM (inactive) and the GI50 [9] was > 73.3 µM (inactive). For the same compound, the GI50 [10] was > 100 µM (inactive), the GI50 [11] was > 100 µM (inactive) and the GI50 [12] was greater than 100 µM. The GI50 [13] was > 100 µM (inactive), the GI50 [14] was > 100 µM (inactive) and the GI50 [15] was > 100 µM (inactive). For the same compound, the GI50 [16] was > 100 µM (inactive), the GI50 [17] was > 100 µM (inactive) and the GI50 [18] was > 100 µM (inactive). The GI50 [19] was > 100 µM (inactive), the GI50 [20] was > 100 µM (inactive) and the GI50 [21] was > 100 µM (inactive). The GI50 [22] was > 100 µM (inactive), the GI50 [23] was > 100 µM (inactive) and the GI50 [24] was > 62.2 µM (inactive). The GI50 [25] was > 100 µM (inactive), the GI50 [26] was > 100 µM (inactive) and the GI50 [27] was > 100 µM (inactive). The GI50 [28] was > 100 µM (inactive), the GI50 [29] was > 100 µM (inactive) and the GI50 [30] was > 100 µM (inactive). The GI50 [31] was > 100 µM (inactive), the GI50 [32] was > 100 µM (inactive) and the GI50 [33] was > 100 µM (inactive). The GI50 [34] was > 100 µM (inactive), the GI50 [35] was > 31.6 µM (inactive) and the GI50 [36] was > 100 µM (inactive). The GI50 [37] was > 100 µM (inactive), the GI50 [38] was > 100 µM (inactive) and the GI50 [39] was > 100 µM (inactive). The GI50 [40] was > 100 µM (inactive), the GI50 [41] was > 100 µM (inactive) and the GI50 [42] was > 100 µM (inactive). The GI50 [43] was > 100 µM (inactive), the GI50 [44] was > 100 µM (inactive) and the GI50 [45] was > 100 µM (inactive). For the same compound, the GI50 [46] was > 100 µM (inactive), the GI50 [47] was > 100 µM (inactive) and the GI50 [48] was > 100 µM (inactive). The GI50 [49] was > 100 µM (inactive), the GI50 [50] was > 100 µM (inactive) and the GI50 [51] was > 100 µM (inactive). For the same compound, the GI50 [52] was > 100 µM (inactive), the GI50 [53] was > 100 µM (inactive) and the GI50 [54] was > 100 µM (inactive).
With `COc1ccc(/C=C2\CC3C4CC=C5C[C@@H](N6CCCC6)CC[C@]5(C)C4CC[C@]3(C)[C@H]2O)cc1OC` (some centres not stated) the GI50 [1] was 3.77 µM (inactive), the GI50 [2] was 8.2 µM (inactive) and the GI50 [3] was 9.46 µM (inactive). The GI50 [4] was 8.85 µM (inactive), the GI50 [5] was 8.87 µM (inactive) and the GI50 [6] was 8.65 µM (inactive). For the same compound, the GI50 [55] was 8.17 µM (inactive), the GI50 [7] was 8.38 µM (inactive) and the GI50 [8] was 11.2 µM (inactive). For the same compound, the GI50 [9] was 8.79 µM (inactive), the GI50 [10] was 5.52 µM (inactive) and the GI50 [11] was 8.24 µM (inactive). For the same compound, the GI50 [12] was 6.81 µM, the GI50 [56] was 14.4 µM (inactive) and the GI50 [13] was 5.48 µM (inactive). The GI50 [14] was 10.7 µM (inactive), the GI50 [57] was 4.13 µM (inactive) and the GI50 [15] was 11 µM (inactive). The GI50 [16] was 10.7 µM (inactive), the GI50 [17] was 8.09 µM (inactive) and the GI50 [18] was 6.56 µM (inactive). For the same compound, the GI50 [19] was 8.97 µM (inactive), the GI50 [20] was 9.44 µM (inactive) and the GI50 [21] was 7.55 µM (inactive). The GI50 [22] was 7.85 µM (inactive), the GI50 [23] was 6.7 µM (inactive) and the GI50 [24] was 7.55 µM (inactive). The GI50 [58] was 8.39 µM (inactive), the GI50 [25] was 9.2 µM (inactive) and the GI50 [26] was 10.5 µM (inactive). The GI50 [27] was 9.04 µM (inactive), the GI50 [28] was 9.16 µM (inactive) and the GI50 [59] was 8.22 µM (inactive). For the same compound, the GI50 [29] was 9.02 µM (inactive), the GI50 [30] was 8.32 µM (inactive) and the GI50 [31] was 7.67 µM (inactive). The GI50 [32] was 10.2 µM (inactive), the GI50 [33] was 10.6 µM (inactive) and the GI50 [34] was 6.3 µM (inactive). The GI50 [35] was 7.52 µM (inactive), the GI50 [36] was 8.77 µM (inactive) and the GI50 [37] was 10.4 µM (inactive). For the same compound, the GI50 [38] was 3.13 µM (inactive), the GI50 [39] was 7.06 µM (inactive) and the GI50 [40] was 8.51 µM (inactive). For the same compound, the GI50 [41] was 7.43 µM (inactive), the GI50 [42] was 7.26 µM (inactive) and the GI50 [43] was 8.81 µM (inactive). The GI50 [44] was 10.2 µM (inactive), the GI50 [45] was 10.4 µM (inactive) and the GI50 [46] was 12.2 µM (inactive). The GI50 [48] was 15.8 µM (inactive), the GI50 [49] was 12.2 µM (inactive) and the GI50 [50] was 10.8 µM (inactive). For the same compound, the GI50 [51] was 8.45 µM (inactive), the GI50 [52] was 8.13 µM (inactive) and the GI50 [53] was 8.97 µM (inactive). For the same compound, the GI50 [54] was 9.27 µM (inactive).
